In US6809085B1, “Adherent N,O-Carboxymethylchitosan drug delivery devices for moist tissue and methods of their use” (Chitogenics, Inc., priority 1999, dated 2004):
Counter-ions that a name gives are not always drawn. Like-named read-outs stand apart in the source and are kept apart here. Values belong to the compound of their own block, whether it stands above or below them.

Type: in vitro ADME, rabbit
Description: Previously harvested pieces of rabbit large bowel (surface area 1.767 cm^2) were mounted in an Improved Franz Diffusion Cell containing 0.9% saline (13ml) as the receptor medium. The vaginal cream of Example 3 (1.0 g) was applied directly to the rabbit tissue; the experiments were performed in triplicate.
Aliquots of 1.0 ml (which were replaced with fresh saline solution) were withdrawn from the receptor chamber at 1, 3, 6, 20, 24, 48 hours. LN in samples was quantified using high performance liquid chromatography (Hewlett Packard, model 1090,series II, fitted with Hypersil C18, 5 μm, 25 cm×4.6 mm column, a UV detector set at 241 nm and an acetonitrile(80%)-water(20%) mobile phase).
Accurately weighed portions of the LN-vaginal cream as well as the cream recovered from the diffusion cells were extracted with 20 ml methanol for 16 hr on a wrist-action shaker and analyzed. […] The replicate results along with an average are plotted.
The permeation studies were conducted as described in Example 12 except that the HPLC analysis was modified; a Spectra Physics, Model SP8800, fitted with Alltima phenyl, 5 micron, 15 cm×4.6 mm column, and a UV detector set at 223 nm was used with an acetonitrile (40%)-0.1% phosphoric acid mobile phase. […]

- average permeation rate through the mucosal tissue: 160.8 μg/cm^2/hr
SMILES: CC(=O)O.CC(=O)O.NC(=N\CCCCCC/N=C(N)/N=C(\N)Nc1ccc(Cl)cc1)/N=C(\N)Nc1ccc(Cl)cc1 [chlorhexidine diacetate]

- average permeation rate through the mucosal tissue (rabbit, 48 h, 5 mg per pellet): 97.3 μg/cm^2/hr
- average permeation rate through the mucosal tissue (rabbit, 48 h, 10 mg per pellet): 182 μg/cm^2/hr
SMILES: CN(C)CCC(c1ccc(Cl)cc1)c1ccccn1 (stereo not shown) [chlorpheniramine maleate]

- concentration of LN in the cream recovered following the permeation study: 3.101 ± 0.315 mg/g
- amount of levonorgestrel released through normal tissue (rabbit, 48 h, 3 mg/g): less than 0.5%
- permeation rate of hormone that diffused through the tissue from the cream (rabbit, 48 h, 3 mg/g): 0.163±0.010 μg/cm^2/hr
SMILES: C#C[C@]1(O)CC[C@H]2[C@@H]3CCC4=CC(=O)CC[C@@H]4[C@H]3CC[C@@]21CC [levonorgestrel]

- average permeation rate through the mucosal tissue (rabbit, 24 h): 103.8 μg/cm^2/hr
SMILES: CC(C)(C)NC[C@H](O)COc1nsnc1N1CCOCC1 [timolol maleate]
